Experimental data reported in patent publication US4571403A, “Antianginal medicated compound” (Institut Organicheskoi Khimii Imeni N.D. Zelinskogo …, priority 1984, dated 1986).
Entries after “also recorded” stand apart in the source; their conditions may differ.

Experiments:
mice = experiment: acute toxicity on mice; assay type: in vivo
Text: (§1) The acute toxicity of the preparation according to the present invention has been studied on mice and rats.

acute toxicity on mice = assay type: in vivo; conditions: mouse, in vivo
Text: as §1

acute toxicity on rats = conditions: rat, in vivo
Text: as §1

[1] = system: patients suffering from ischemic heart disease; experiment: clinical test in patients with ischemic heart disease; assay type: in vivo, human patients
Description: There were studied 84 patients aged 29 to 77 (46 men and 38 women) suffering from ischemic heart disease.
The patients with ischemic heart disease were classified by stages: stage 1-18 persons, stage 2-40 persons, stage […] (according to L. I. Fogelson, 1972). In 46 patients there was the attendant hypertonic disease of the second stage.
The remoteness of the disease was varied from 6 months to 22 years. The preparation was administered perorally in doses of 0.6-0.9 g 3-4 times a day. The daily dose is 1.8-3.6 g. The treatment course was 7 to 60 days; after a 5-7 days' interval the treatment was resumed depending on its efficiency so that the total course duration was up to 6 months. The effectiveness of the treatment was evaluated by the dynamics of complaints, clinic chart, objective data of pulse and arterial pressure, electrocardiographic and biochemical characteristics.

[2] = system: ischemic zone of myocardium; experiment: model of acute attack of stenocardia (Sekeresh's model) in anesthetized dogs; assay type: in vivo
Text: The effect of the preparation on the functional state of the ischemic center has been studied in experiments on dogs under the conditions of general anesthesia. The effects caused by the preparation have been studied on the model of an acute attack of stenocardia (Sekeresh's model). The functional state of the ischemic focus has been assessed through analysis of epicardial heart electrograms in the ischemic zone and adjacent regions. The stenocardiac attack is caused by way of a partial occlusion of the coronary artery (left descending artery) and including a high rhythm of heart contractions (up to 250 beats/minute) by way of electrical stimulation of the heart auricula. Under these conditions there take place changes of the heart electrograms typical for acute ischemia of myocardium.

[3] = system: vessels of heart, kidney and limbs; experiment: resistogram of vessels of heart, kidney and limbs; assay type: in vivo
Text: To find out the participance of the vascular factor in redistribution of regional blood flow, resistogram of vessels of heart, kidney and limbs has been recorded. […] The effect of the preparation on the heart activity and basic characteristics of hemodynamics has been also studied.

cardio-vascular effects = experiment: overall cardiovascular effects / conclusions of the tests; conditions: in vivo
Text: The results of the above-described tests allow the following conclusions characterizing the properties of the medicated compound according to the present invention.

blood flow in aorta = experiment: volumetric blood flow in the ascending aortic arch, anesthetized cats and dogs; assay type: in vivo; conditions: 200-500 mg/kg intravenously
Text: In experiments on cats and dogs under the general anesthesia conditions the volumetric flow rate of blood flow in the ascending part of the aortic arch has been recorded by the electromagnetic method using an electromagnetic blood flow meter and vessel sensors of appropriate size. On the basis of analysis of the phase curve of the blood flow, the main characteristics of heart activity and hemodynamics have been calculated. […] The averaged data of analysis of phase curves of the blood flow in cat's aorta under general anesthesia conditions (8 tests) are given in the Table hereinbelow.

[4] = system: sympathetic nerves of heart and kidney; experiment: tonic and reflectorial bioelectric activity in sympathetic nerves of heart and kidney; assay type: in vivo; conditions: cats
Text: In experiments on anesthetized (urethane+chloralose) and immobilized (succinylcholine bromide) cats (14 tests) there has been studied the effect of the preparation in various doses on the tonic and reflectorial bioelectric activity in sympathetic nerves of heart and kidney. Somatosympathetic reflexes are caused by electric irritation of afferent A- and C- fibers of the tibial nerve.

rats = experiment: chronical toxicity in rats, intraperitoneal; assay type: in vivo
[5] = system: systemic arterial pressure; experiment: effect on arterial pressure in cats and dogs; assay type: in vivo
Description: The effect of the preparation on the arterial pressure has been also studied. […] The average value of the maximum drop of pressure during the first 10 minutes after the administration is 8-10% of the initial level. In doses of 500 mg/kg the preparation causes hypotensive reaction with the intensity of 15-18% of the initial level at the duration of the effect of 20-30 minutes.

[6] = patients with attendant hypertonic disease
[7] = intraperitoneal 200 mg/kg for 6 months and 1,000 mg/kg for 1 month
[8] = 50 mg/kg intravenously, cats and dogs

CN1C(=O)N(C)C2C1N(C)C(=O)N2C (stereo not drawn) [the preparation, 2,4,6,8-tetramethyl-2,4,6,8-tetraazobicyclo-/3,3,0/-octanedione-3,7]
LD50 (mice): 3,800 mg/kg of the body weight | LD50 (acute toxicity on mice): 3800 mg/kg | LD50 (acute toxicity on rats): 3450 mg/kg | potassium in plasma ([1]; after treatment, before 3.82±0.16): 3.45±0.08 mequiv/l | number of erythrocytes ([1]; after treatment, before 4.6±0.3): 5.3±0.3 mln in mm^3 | content of total protein ([1]; after treatment, before 7.73±0.1%): 8.65±0.25% | content of lymphocytes ([1]; after treatment, before 26.9±1.2%): 31.0±2.8% | potassium in erythrocytes ([1]; after treatment, before 65.7±5.7): 80.2±5.2 mequiv/l | hemoglobin ([1]; after treatment, before 82.7±2.6%): 86.3±3.2% | cholesterol ([1]; after treatment, before 294.0±16.4%): 245±15.0 mg % | leucocytes ([1]; after treatment, before 5,520±499): 6,080±221 in mm^3 | content of prothrombin ([1]; during the treatment course): not changed | content of sodium in erythrocytes and plasma ([1]; human, in vivo): not substantially changed | contraindications ([1]; human, in vivo): No contraindications against the administration of the preparation have been revealed | patients with good therapeutic effect ([1]; human, in vivo): 77 % of the patients | remaining fractions of proteinogram ([1]; human, in vivo): insignificant opposite-sign variations | side effects ([1]; human, in vivo): Side effects are absent | day at which amelioration of the condition was observed [1, 6]: 2 to 5 days | pulse [1, 6]: pulse normalization | minimal arterial pressure ([1]; patients with attendant hypertonic disease, after treatment, before 102.2±1.2): 89.7±4.0 mm Hg | maximum arterial pressure ([1]; patients with attendant hypertonic disease, after treatment, before 180.8±3.9): 161.4±3.8 mm Hg | electrogram ([1]; perorally 1.8-3.6 g daily): rhythm normalization | frequency and intensity of stenocardia attacks ([1]; perorally 1.8-3.6 g daily): reduced | metabolic processes ([1]; perorally 1.8-3.6 g daily): amelioration of metabolic processes | gamaglobulins ([1]; proteinogram, after treatment, before 19.87±1.83%): 22.54±2.31% | ischemic changes of epicardial electrograms in the zone of ischemia ([2]; 200 mg/kg, dogs): inhibited the development of ischemic changes of epicardial electrograms in the zone of ischemia | blood inflow into the ischemic zone (retrograde blood flow) ([2]; dogs): considerably increase the blood inflow into the ischemic zone | activity compared with nonachlazine (sum of pharmacological effects) ([2]; experimental model of acute myocardium ischemia): more active (as regards the sum of pharmacological effects) than the known preparation nonachlazine | tension of vessels ([3]; heart, kidney and limbs): monodirectionally lowers tension of all vessels | resistance of coronary vessels versus peripheral vessels ([3]; in vivo): lowered to a greater extent than that of peripheral vessels | arterial pressure (cardio-vascular effects): no substantial change of arterial pressure | colateral blood flow in deep (endocardial) layers of myocardium (cardio-vascular effects): contributes to the development of the colateral blood flow in deep (endocardial) layers of myocardium | contractibility of myocardium (inotropic effect) (cardio-vascular effects): positive inotropic effect; also recorded: increases contractibility of myocardium | frequency of heart contractions (cardio-vascular effects): without affecting the frequency of heart contractions | functional state of the ischemic centre (cardio-vascular effects): capable of improving functional state of the ischemic centre; also recorded: capable of improve the functional state of the ischemic centre | lactate in the blood outflowing from the ischemic zone (cardio-vascular effects): lowering the content of lactate in the blood outflowing from the ischemic zone | sympathetic tonus of heart and vessels (cardio-vascular effects): capable of inhibiting the sympathetic tonus of heart and vessels | vascular component of pain reactions (cardio-vascular effects): capable of inhibiting the sympathetic tonus of heart and vessels, as well as vascular components of pain reactions; also recorded: suppresses the vascular component of pain reactions | volumetric rate of total coronary blood flow (cardio-vascular effects): increases the volumetric rate of total coronary blood flow | duration of increased blood flow in aorta (blood flow in aorta): 30 to 40 min | increase of blood flow in aorta (blood flow in aorta): 50-70% | tachycardia (blood flow in aorta): uncertainly pronounced tachycardia | pressor responses caused by tetanic irritation of tibial nerve ([4]; 50 mg/kg): remain unchanged | tonic and reflectorial activity in sympathetic nerves ([4]; 50 mg/kg): does not noticeably change the character and intensity of tonic and reflectorial activity in sympathetic nerves | spontaneous activity and reflectorial responses ([4]; 50 mg/kg, in a certain number of the experiments): slight amplification of spontaneous activity and facilitation of reflectorial responses | C-responses of the reflectorial discharges ([4]; 250-500 mg/kg): suppressed | inhibiting component of the reflectorial response ([4]; 250-500 mg/kg): amplification of the inhibiting component of the reflectorial response | tonic activity in sympathetic nerves ([4]; 250-500 mg/kg): weakly inhibited | accumulation (rats; [7]): not accumulated | effect on hematoplasty and urination (rats; [7]): does not affect hematoplasty and urination | histological changes in the visceral organs (rats; kidney, liver, spleen, heart and the like, intraperitoneal 200 mg/kg 6 months, 1,000 mg/kg 1 month): no pathological changes in the visceral organs | arterial pressure reaction during the first 5 minutes [5, 8]: uncertain hypertensive reaction | effect on the systemic arterial pressure [5, 8]: no essential effect on the systemic arterial pressure | changes of the arterial pressure ([5]; 250 mg/kg, cats and dogs): opposite-sign changes of the arterial pressure mainly of hypotensive character | average value of the maximum drop of pressure ([5]; 250 mg/kg, first 10 minutes after administration, cats and dogs): 8-10 % of the initial level | duration of the hypotensive effect ([5]; 500 mg/kg, cats and dogs): 20 to 30 min | hypotensive reaction intensity ([5]; 500 mg/kg, cats and dogs): 15-18 % of the initial level | influence on the adrenoreactive structures of the vessels ([5]; dog, in vivo): does not influence the adrenoreactive structures of the vessels | depressor reactions on isoproterenol ([5]; isoproterenol 2.5 μg/kg): does not change the character | pressor reactions of arterial pressure on noradrenaline ([5]; noradrenaline 3 μg/kg): does not change the character
